Experimental data published in ChEMBL document CHEMBL1148292 (J Med Chem, 2004).
Several values for one entry are separate records, joined by “and”; a condition that tells them apart may be missing. Equal values may be shown once.

What was measured:
[1] = molecular target: T1, Adenosine receptor A1 (Homo sapiens, UniProt P30542); assay: Displacement of specific [3H]DPCPX binding at human adenosine A1 receptor expressed in CHO cells; assay type: cell-based
T1 sequence (P30542 whole entry): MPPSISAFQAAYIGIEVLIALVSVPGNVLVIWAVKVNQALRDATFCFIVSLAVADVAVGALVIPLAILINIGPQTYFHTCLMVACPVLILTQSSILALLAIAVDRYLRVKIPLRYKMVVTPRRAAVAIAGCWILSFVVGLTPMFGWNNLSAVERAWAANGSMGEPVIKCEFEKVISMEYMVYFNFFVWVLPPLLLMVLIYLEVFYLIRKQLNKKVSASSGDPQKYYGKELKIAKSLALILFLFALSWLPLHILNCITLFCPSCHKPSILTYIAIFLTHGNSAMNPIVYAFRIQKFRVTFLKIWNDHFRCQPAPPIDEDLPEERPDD

[2] = molecular target: T2, Adenosine receptor A2b (Homo sapiens, UniProt P29275); assay: Inhibitory activity against cAMP production in CHO cells transfected with human A2B adenosine receptor; assay type: functional, cell-based
T2 sequence (P29275 whole entry): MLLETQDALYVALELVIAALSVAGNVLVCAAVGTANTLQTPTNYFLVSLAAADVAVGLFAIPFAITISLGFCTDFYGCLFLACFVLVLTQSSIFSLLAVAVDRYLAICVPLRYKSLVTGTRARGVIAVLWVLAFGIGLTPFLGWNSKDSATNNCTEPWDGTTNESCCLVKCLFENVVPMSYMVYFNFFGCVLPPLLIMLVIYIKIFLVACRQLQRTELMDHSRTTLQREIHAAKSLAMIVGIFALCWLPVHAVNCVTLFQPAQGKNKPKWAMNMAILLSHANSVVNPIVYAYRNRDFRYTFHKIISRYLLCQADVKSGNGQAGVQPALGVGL

[3] = molecular target: T2, Adenosine receptor A2b; assay: Binding affinity of compound for displacement of [3H]DPCPX binding in HEK293 membranes expressing human A2B adenosine receptors
[4] = molecular target: T3, Adenosine receptor A3 (Homo sapiens, UniProt P0DMS8); assay: Binding affinity of compound for displacement of specific [3H]MRE3008-F20 binding at human A3 receptors expressed in CHO cells; assay type: cell-based
T3 sequence (P0DMS8 whole entry): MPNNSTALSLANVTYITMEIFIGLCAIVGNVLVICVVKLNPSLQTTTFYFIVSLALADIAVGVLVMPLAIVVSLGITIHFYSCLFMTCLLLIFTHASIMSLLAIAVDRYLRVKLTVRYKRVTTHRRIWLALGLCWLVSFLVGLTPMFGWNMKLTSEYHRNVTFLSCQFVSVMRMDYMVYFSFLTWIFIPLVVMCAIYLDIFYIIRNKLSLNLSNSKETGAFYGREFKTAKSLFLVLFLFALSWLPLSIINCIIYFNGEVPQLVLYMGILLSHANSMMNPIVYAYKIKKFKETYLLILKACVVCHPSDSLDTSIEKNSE

[5] = molecular target: Adenosine receptor A2a (Homo sapiens, UniProt P29274); assay: Binding affinity of compound for displacement of specific [3H]ZM-241385 binding at human adenosine A2A receptor expressed in CHO cells; assay type: cell-based
[6] = molecular target: T2, Adenosine receptor A2b; assay: Binding affinity of compound for displacement of specific [3H]- DPCPX binding at human A2B receptors expressed in HEK293 cells; assay type: cell-based

Adenosine receptor A2a, sequence (P29274 whole entry): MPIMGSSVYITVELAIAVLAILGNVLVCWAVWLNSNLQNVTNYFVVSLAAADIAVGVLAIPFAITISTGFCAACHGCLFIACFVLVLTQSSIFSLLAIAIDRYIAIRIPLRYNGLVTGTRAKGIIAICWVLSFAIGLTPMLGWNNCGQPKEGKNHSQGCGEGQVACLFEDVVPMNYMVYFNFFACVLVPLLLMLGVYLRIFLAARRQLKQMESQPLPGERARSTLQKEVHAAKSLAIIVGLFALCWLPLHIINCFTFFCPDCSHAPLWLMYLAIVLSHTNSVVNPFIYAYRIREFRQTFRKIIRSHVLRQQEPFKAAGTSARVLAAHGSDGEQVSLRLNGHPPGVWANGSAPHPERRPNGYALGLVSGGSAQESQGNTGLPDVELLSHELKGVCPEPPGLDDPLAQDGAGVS

| SMILES | Ki [1] [nM] | Ki [3] | Ki [4] [nM] | Ki [5] [nM] | other results |
| --- | --- | --- | --- | --- | --- |
| C=CCn1c(=O)c2[nH]c(-c3cc(OCC(=O)N4CCN(c5ccccc5)CC4)nn3C)nc2n(CC=C)c1=O | > 1000 | 24 nM |  |  | IC50 [2]: 81 nM |
| CCCn1c(=O)c2[nH]c(-c3cc(OCC(=O)Nc4ccc(C(=O)OCC)cc4)nn3C)nc2n(CCC)c1=O | > 1000 | 32 nM |  |  | IC50 [2]: 120 nM |
| CCCn1c(=O)c2[nH]c(-c3cc(OCC(=O)Nc4ccc(F)cc4)no3)nc2n(CCC)c1=O | > 1000 |  |  |  |  |
| CCCn1c(=O)c2[nH]c(-c3cc(NC(=O)Cc4ccc(N(C)C)cc4)nn3C)nc2n(CCC)c1=O | > 1000 |  |  |  |  |
| CCCn1c(=O)c2[nH]c(-c3cc(OCC(=O)Nc4ccncc4)nn3C)nc2n(CCC)c1=O |  |  | > 1000 | > 1000 |  |
| CCCn1c(=O)c2[nH]c(-c3cc(OCC(=O)N4CCN(C)CC4)nn3C)nc2n(CCC)c1=O | > 1000 | 76 nM |  |  | Ki ([1]; cho): > 1000 nM; IC50 [2]: 322 nM; Ki [6]: 76 nM |
| CCCn1c(=O)c2[nH]c(-c3cc(OCC(=O)Nc4ccc(OC)c(OC)c4)no3)nc2n(CCC)c1=O | > 1000 |  |  |  |  |
| Cn1nc(-c2nc3c([nH]2)c(=O)n(C)c(=O)n3C)cc1N | > 1000 |  | > 1000 | > 1000 | Ki [6]: 175 nM |
| CCCn1c(=O)c2[nH]c(-c3cc(OCC(=O)Nc4ccc(C(C)CC)cc4)nn3C)nc2n(CCC)c1=O (configuration not stated) |  |  | > 1000 | > 1000 |  |
| CCCn1c(=O)c2[nH]c(-c3cc(C(=O)O)n(C)n3)nc2n(CCC)c1=O | > 1000 |  |  |  |  |
| CCCn1c(=O)c2[nH]c(-c3cc(NC(=O)Cc4ccc(Cl)cc4)nn3C)nc2n(CCC)c1=O |  | 28 nM |  |  |  |
| CCCn1c(=O)c2[nH]c(-c3cc(NC(=O)Cc4ccc(OCc5ccccc5C(F)(F)F)cc4)nn3C)nc2n(CCC)c1=O |  | 13 nM |  |  |  |
| CCCn1c(=O)c2[nH]c(-c3cc(NC(=O)Cc4ccccc4)n(C)n3)nc2n(CCC)c1=O |  | 34 nM | > 1000 | > 1000 |  |
| CCCn1c(=O)c2[nH]c(-c3cc(OCC(=O)Nc4ccc(C(C)=O)cc4)nn3C)nc2n(CCC)c1=O | > 1000 |  | > 1000 | > 1000 |  |
| CCCn1c(=O)c2[nH]c(-c3cc(OCC(=O)Nc4ccc(OC)cc4)no3)nc2n(CCC)c1=O | > 1000 |  |  |  |  |
| CCCn1c(=O)c2[nH]c(-c3cc(OCC(=O)N4CCN(Cc5ccccc5)CC4)nn3C)nc2n(CCC)c1=O |  |  | > 1000 | > 1000 |  |

| SMILES | Ki [1] [nM] | Ki [3] | Ki [4] [nM] | Ki [5] [nM] | other results |
| --- | --- | --- | --- | --- | --- |
| CCCn1c(=O)c2[nH]c(-c3ccc(NC(=O)Cc4ccccc4)cc3)nc2n(CCC)c1=O | > 1000 |  | > 1000 | > 1000 | Ki [6]: 649 nM |
| CCCn1c(=O)c2[nH]c(-c3cc(NC(=O)Cc4ccc(C(F)(F)F)cc4)nn3C)nc2n(CCC)c1=O |  |  |  |  | Ki [6]: 130 nM |
| CCCn1c(=O)c2nc(-c3cc(OCC(=O)Nc4ccc5c(c4)OCO5)no3)[nH]c2n(CCC)c1=O | > 1000 | 47 nM | > 1000 | > 1000 | IC50 [2]: 140 nM; Ki [6]: 47 nM |
| CCCn1c(=O)c2[nH]c(-c3cc(NC(=O)Cc4ccc5c(c4)OCO5)nn3C)nc2n(CCC)c1=O |  | 18 nM |  | > 1000 |  |
| CCCn1c(=O)c2nc(-c3ccc(N)cc3)[nH]c2n(CCC)c1=O | 65 |  | > 1000 | > 1000 | Ki [6]: 9 nM |
| CCCn1c(=O)c2nc(-c3ccc(NC(=O)Nc4cccc(Cl)c4)cc3)[nH]c2n(CCC)c1=O | 1360 |  | > 1000 | > 1000 | Ki [6]: 110 nM |
| CCCn1c(=O)c2[nH]c(-c3cc(NC(=O)Cc4ccc(O)cc4)nn3C)nc2n(CCC)c1=O | > 1000 |  |  |  |  |
| CCCn1c(=O)c2[nH]c(-c3cc(NC(=O)[C@@H](C)c4ccccc4)nn3C)nc2n(CCC)c1=O | > 1000 |  |  |  |  |
| CCCn1c(=O)c2[nH]c(-c3cc(OCC(=O)Nc4ccc(Cl)c(Cl)c4)nn3C)nc2n(CCC)c1=O |  | 16 nM |  |  | IC50 [2]: 60 nM |
| CCCn1c(=O)c2[nH]c(-c3cc(NC(=O)Cc4ccc(F)c(F)c4)nn3C)nc2n(CCC)c1=O |  |  |  |  | Ki [6]: 78 nM |
| CCCn1c(=O)c2[nH]c(-c3cc(NC(=O)CCC(=O)O)nn3C)nc2n(CCC)c1=O | > 1000 |  |  |  |  |
| CCCn1c(=O)c2[nH]c(-c3cc(OCC(=O)N4CCN(c5ccccc5)CC4)nn3C)nc2n(CCC)c1=O | 260 | 12 nM and 15 nM |  |  | IC50 [2]: 70 nM and 65 nM; Ki [6]: 12 nM |
| CCCn1c(=O)c2[nH]c(-c3cc(OCC(=O)N4CCN(c5ccc(F)cc5)CC4)nn3C)nc2n(CCC)c1=O | > 1000 |  |  |  |  |
| CCCn1c(=O)c2[nH]c(-c3cc(OCC(=O)Nc4ccc(N5CCOCC5)cc4)nn3C)nc2n(CCC)c1=O | > 1000 |  |  |  |  |
| CCCn1c(=O)c2[nH]c(-c3cc(NC(=O)Cc4ccc(OC)c(OC)c4)nn3C)nc2n(CCC)c1=O | > 1000 | 38 nM |  | > 1000 |  |
| CCCn1c(=O)c2[nH]c(-c3ccc(OCC(=O)Nc4ccc(I)cc4)nc3)nc2n(CCC)c1=O | > 1000 | 108 nM |  |  | IC50 [2]: 477 nM |

Further lines, with some results ahead:

| Ki [1] [nM] | Ki [3] | Ki [4] [nM] | Ki [5] [nM] | SMILES | other results |
| --- | --- | --- | --- | --- | --- |
| > 1000 | 56 nM |  |  | CCCn1c(=O)c2[nH]c(-c3cc(NC(=O)Cc4ccc(OCc5ccccc5)cc4)nn3C)nc2n(CCC)c1=O | IC50 [2]: 185 nM |
| > 1000 |  |  |  | CCCn1c(=O)c2[nH]c(-c3cc(NC(=O)Cc4ccc([N+](=O)[O-])cc4)nn3C)nc2n(CCC)c1=O |  |
|  | 20 nM |  |  | CCCn1c(=O)c2[nH]c(-c3cc(OCC(=O)Nc4ccc(Br)cc4)nn3C)nc2n(CCC)c1=O |  |
| > 1000 |  |  |  | CCCn1c(=O)c2[nH]c(-c3cc(NC(=O)[C@H](C)c4ccccc4)nn3C)nc2n(CCC)c1=O |  |
|  | 35 nM |  |  | CCCn1c(=O)c2[nH]c(-c3cc(NC(=O)Cc4ccccc4)nn3C)nc2n(CCC)c1=O |  |
| > 1000 |  |  |  | CCCn1c(=O)c2[nH]c(-c3ccc(OCC(=O)Nc4ccc(I)cc4)nn3)nc2n(CCC)c1=O |  |
| 1170 |  | > 1000 | > 1000 | CCCn1c(=O)c2[nH]c(-c3ccc(NC(=O)Nc4cccc(OC)c4)cc3)nc2n(CCC)c1=O | Ki [6]: 58 nM |
|  |  | > 1000 | > 1000 | CC(C)Cn1c(=O)c2nc(-c3cc(OCC(=O)Nc4ccc(F)cc4)nn3C)[nH]c2n(CC(C)C)c1=O |  |
| > 1000 |  |  |  | Cn1nc(NC(=O)Cc2ccccc2)cc1-c1nc2c([nH]1)c(=O)n(C)c(=O)n2C |  |
| > 1000 |  | > 1000 | > 1000 | CCCn1c(=O)c2[nH]c(-c3cc(NC(=O)Cc4cc(OC)c(OC)c(OC)c4)nn3C)nc2n(CCC)c1=O | Ki [6]: > 1000 nM |
|  | 50 nM |  |  | CCCn1c(=O)c2[nH]c(-c3cc(NC(=O)Cc4cccc(F)c4)nn3C)nc2n(CCC)c1=O | IC50 [2]: 160 nM |
| > 1000 |  | > 1000 | > 1000 | CCCn1c(=O)c2c(nc(-c3ccc(N)cc3)n2C)n(CCC)c1=O | Ki [6]: 516 nM |
| > 1000 | 12 nM |  |  | CCCn1c(=O)c2[nH]c(-c3cc(OCC(=O)Nc4ccc(OC)c(OC)c4)nn3C)nc2n(CCC)c1=O | IC50 [2]: 46 nM |
|  | 10 nM |  |  | CCCn1c(=O)c2[nH]c(-c3cc(OCC(=O)Nc4ccc(C)c(C)c4)nn3C)nc2n(CCC)c1=O | IC50 [2]: 40 nM |
|  | 19 nM |  |  | CCCn1c(=O)c2[nH]c(-c3cc(OCC(=O)Nc4ccc(C)cc4)nn3C)nc2n(CCC)c1=O | IC50 [2]: 75 nM |
|  |  | > 1000 | > 1000 | CCCn1c(=O)c2[nH]c(-c3cc(N)n(C)n3)nc2n(CCC)c1=O |  |
| > 1000 |  |  |  | CCCn1c(=O)c2[nH]c(-c3cc(NC(=O)Cc4ccc(CC(C)C)cc4)nn3C)nc2n(CCC)c1=O |  |
| > 1000 |  |  | > 1000 | CCCn1c(=O)c2[nH]c(-c3cc(NC(=O)Cc4ccc(O)c(OC)c4)nn3C)nc2n(CCC)c1=O |  |
| > 1000 | 36 nM |  |  | CCCn1c(=O)c2[nH]c(-c3cc(OCC(=O)Nc4ccc(C(=O)O)cc4)nn3C)nc2n(CCC)c1=O | IC50 [2]: 115 nM |
| 1730 |  | > 1000 | > 1000 | CCCn1c(=O)c2[nH]c(-c3ccc(NC(=O)Cc4ccc(OC)c(OC)c4)cc3)nc2n(CCC)c1=O | Ki [6]: 95 nM |
| > 1000 |  | > 1000 | > 1000 | CCCn1c(=O)c2[nH]c(-c3cc(OCC(=O)Nc4ccc(C)cn4)nn3C)nc2n(CCC)c1=O | Ki [6]: 1010 nM |
| > 1000 |  |  |  | CCCn1c(=O)c2[nH]c(-c3cc(NC(=O)Cc4cccc(OC)c4)nn3C)nc2n(CCC)c1=O |  |
